According to patent publication US6271238A, “Acetamide derivatives and protease inhibitors” (Nippon Kayaku Kabushiki Kaisha, priority 1996, dated 2001):

Experiments:
rat mast cells = experiment: Inhibitory action on degranulation of mast cells (histamine release from rat mast cells); type: cell-based; conditions: Mast cell; rat peritoneal mast cells, anti-IgE antibody, 37° C.
Procedure: Inhibitory action on degranulation of mast cells
(A) Preparation of mast cells
30 ml of mast cell buffer solution (150 mM sodium chloride, 3.7 mM potassium chloride, 3.0 mM disodium hydrogen phosphate, 3.5 mM sodium dihydrogen phosphate, 5.6 mM dextrose, pH 7.0) was injected into the abdomen of a rat(SD, male, 8 to 10 week-old), and intra peritoneal cavity cells were recovered and centrifuged at 800 rpm for 5 minutes, and then the abdomen infiltration cells were recovered as precipitates. The precipitated cells were further washed twice with the mast cell buffer solution, suspended again at a predetermined density, and used in the objective experiment.
(B) Inhibitory action on degranulation of mast cells (inhibitory action on histamine release from rat mast cells)
The mast cells obtained in the procedure in (A) above were suspended at 1×10^5 cells in the mast cell buffer solution and kept at 37° C. 2 μl of each drug and 200 μl of the cell suspension were added into a 1.5 ml test tube previously kept at 37° C. and incubated at 37° C. for 10 minutes. After incubation, 2 μl anti-IgE antibody (BETHYL Lab. Inc.) was added to it and further incubated at 37° C. for 15 minutes. After the end of the reaction, the reaction mixture was immediately cooled on ice and centrifuged at 4° C. at 4000 rpm for 5 minutes, and then the supernatant was stored. Histamine in the supernatant was modified with ortho-phthalaldehyde and measured by high performance liquid chromatography to determine 50% inhibitory concentration (IC50: μM).

guinea pig eosinophils = experiment: Inhibitory action on eosinophils (release of active oxygen from guinea pig eosinophils); type: cell-based; conditions: Cavia porcellus, Eosinophil, 5 min, PAF, luminol chemiluminescence for 5 minutes
Procedure: Inhibitory activity on eosinophil activation
(A) Preparation of eosinophils
Polymyxin B (produced by Sigma) was administered intraperitoneally into a guinea pig (Hartley, male, 6-week-old) at a dosage of 1 mg once every week for 6 to 8 weeks. After the final administration of polymyxin B. 50 ml of PBS (phosphate-buffered saline) was injected into the intraperitoneal cavity of the guinea pig, and cells were recovered. The cells were centrifuged at 800 rpm for 5 minutes and the abdomen infiltration cells were collected as precipitates and then suspended in 1 ml of 40% Ficoll (40% Ficoll (produced by Pharmacia), HBSS (Hanks' balanced salt solution) and layered on a Ficoll discontinuous density gradient (40 to 90%). It was centrifuged at 1500 rpm for 40 minutes, and the eosinophil fraction was recovered. In this operation, eosinophils of 99% or more purity were usually obtained. Further, the cells were washed twice with RPMI 1640 medium (10% BSA (bovine serum albumin available from Boehringer Mannheim), suspended again at a predetermined density, and used in the objective experiment.
(B) Inhibitory action on eosinophils (inhibitory action on release of active oxygen from guinea pig eosinophils)
The eosinophils (99% or more purity) obtained by the Ficoll density gradient method in (A) above were suspended at a cell density of 4×10^5 in a buffer solution (0.136 M sodium chloride, 2.7 mM potassium chloride, 1.8 mM calcium chloride, 1.0 mM magnesium chloride, 11.9 mM sodium hydrogen carbonate, 5.5 mM D-glucose, 5.0 mM HEPES, 0.36 mM sodium dihydrogen phosphate, pH 7.2). Each drug (2 μl) and 180 μl of the cell suspension were put to a 96-well multi-well plate (for chemiluminescence measurement, white type) previously kept at 37° C., and incubated at 37° C. for 10 minutes. After incubation, 20 μl of PAF (platelet-activating factor) (5×10^-6 M) and 20 μl of a luminol solution were added to it and immediately examined for its chemiluminescence (Luminoskan Labosystem). The chemiluminescence for 5 minutes were measured to calculate 50% inhibitory concentration (IC50: μM).

rat chymase = target: T1, rat chymase (Rattus norvegicus, UniProt P09650); experiment: Inhibitory activity on rat chymase (synthetic substrate); type: biochemical; conditions: substrate succinyl leucyl leucyl valyl tyrosyl methylcoumarylamide; pH 8.0, 37° C., 15 min; read-out: Rat Chymase (IC50: nM), 50% inhibitory concentration
T1 construct: 50 g rat tongue was finely divided by scissors and a scalpel; from tissue; host or cells: rat tongue
T1 sequence (P09650 21-260): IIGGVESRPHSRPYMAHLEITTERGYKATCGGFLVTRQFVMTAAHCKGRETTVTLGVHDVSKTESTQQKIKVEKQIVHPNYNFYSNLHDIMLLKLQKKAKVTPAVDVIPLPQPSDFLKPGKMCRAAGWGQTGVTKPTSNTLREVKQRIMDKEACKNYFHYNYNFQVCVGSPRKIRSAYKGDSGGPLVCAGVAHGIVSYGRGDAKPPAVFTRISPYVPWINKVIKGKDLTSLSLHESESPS
Procedure: In the present invention, chymase was purified by the methods described in these literatures, and the present compounds were examined for inhibitory activity on chymase, inhibitory action on activation of mast cells and eosinophils, and pharmacological action in animals. Hereinafter, specific methods are described. […] 50 g rat tongue was finely divided by scissors and a scalpel, suspended in 0.1 M phosphate buffer (pH 8.0), and disrupted by a Polytron homogenizer for 5 minutes to prepare a crude chymase enzyme solution. […] The supernatant was applied to an octyl Sepharose 4B column (40×100 mm) previously equilibrated with 0.1 M phosphate buffer (pH 8.0) containing 2 M sodium chloride and 5% ammonium sulfate, and the protein was eluted with a linear concentration gradient of from 2 M to 0 M sodium chloride. […] (D) Measurement of inhibitory activity on chymase (a) Measurement using the synthetic substrate The synthetic chymase substrate was used for measurement of the inhibitory activity on the rat chymase as a subtrate, and the fluorescence of formed aminomethylcoumarin after reaction was measured by a spectrophotometer. […] The test was conducted several times. Chymase was prepared for each test in the manner described above. The compounds examined were compounds prepared in the above-described examples. […] Succinyl leucyl leucyl valyl tyrosyl methylcoumarylamide (for rat […] angiotensin I (for human and dog chymase)

SMILES	IC50 (rat mast cells) [µM]	IC50 (guinea pig eosinophils) [µM]	IC50 (rat chymase) [nM]
Nc1cnc(-c2ccccc2)n(CC(=O)NC(Cc2ccccc2)C(=O)C(=O)CCCN2CCOCC2)c1=O (stereo not shown) [Compound 71, 2-(5-Amino-6-oxo-2-phenyl-1,6-dihydropyrimidine-1-yl)-N-{2,3-dioxo-6-(4-morpholine-4-yl)-1-phenylmethyl}hexylacetamide]	13	2.6	
CN1CCN(C(=O)CCCC(=O)C(=O)C(Cc2cccc(F)c2)NC(=O)Cn2c(-c3ccccc3)ncc(N)c2=O)CC1 (stereo not shown) [Compound 69]		2.5	54
